Measured values taken from PubChem BioAssay AID248 (DTP/NCI, 2004).
Where “and” joins values, the source holds several entries; their conditions need not be identical. Equal values may be shown once. Inconclusive results and toxic doses are left out. Cut-off read from the data, not from the text of the source: active = T/C of 150% or more; inactive = T/C below 125%.

Tested on: L1210 leukemia ip in BDF1 mice, survival T/C
Experiment: NCI In Vivo Anticancer Drug Screen. Data for tumor model L1210 Leukemia (intraperitoneal) in B6D2F1 (BDF1) mice
Details: endpoint: mean survival time, higher = longer survival
Procedure, shortened: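 Tumor was transplanted into mice, which were then dosed with test compound or vehicle alone. Survival was recorded for each group, and the treated figure was expressed relative to the control figure.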

[1] = dose: 100.0 mg/kg/injection, schedule: Q01DX001 (ip), vehicle: Klucel (hydroxypropylcellulose) (HPC)
[2] = dose: 100.0 mg/kg/injection, schedule: Q01DX009 (ip), vehicle: saline
[3] = dose: 200.0 mg/kg/injection, schedule: Q01DX001 (ip), vehicle: Klucel (hydroxypropylcellulose) (HPC)
[4] = dose: 200.0 mg/kg/injection, schedule: Q01DX009 (ip), vehicle: saline
[5] = dose: 400.0 mg/kg/injection, schedule: Q01DX001 (ip), vehicle: Klucel (hydroxypropylcellulose) (HPC)
[6] = dose: 400.0 mg/kg/injection, schedule: Q01DX009 (ip), vehicle: saline
[7] = dose: 100.0 mg/kg/injection, schedule: Q04DX003 (ip), vehicle: Klucel (hydroxypropylcellulose) (HPC)
[8] = dose: 100.0 mg/kg/injection, schedule: Q04DX003 (ip), vehicle: saline
[9] = dose: 200.0 mg/kg/injection, schedule: Q04DX003 (ip), vehicle: saline
[10] = dose: 400.0 mg/kg/injection, schedule: Q04DX003 (ip), vehicle: saline
[11] = dose: 100.0 mg/kg/injection, schedule: Q01DX001 (ip), vehicle: carboxymethylcellulose (CMC)
[12] = dose: 200.0 mg/kg/injection, schedule: Q01DX001 (ip), vehicle: carboxymethylcellulose (CMC)
[13] = dose: 400.0 mg/kg/injection, schedule: Q01DX001 (ip), vehicle: carboxymethylcellulose (CMC)

Measured: T/C

O=C1C=C(C2CCCCC2)C(=O)C2CCCCC12 (stereo not drawn)
inactive: [1] 107 % of control | [2] 92 % of control | [3] 105 % of control | [4] 91 % of control | [5] 114 % of control | [6] 86 % of control

N#CC1C2C=CC(CC2)C1C#N (stereo not drawn) (tested in a mixture with another compound)
inactive: dose: 0.25 mg/kg/injection, schedule: Q01DX Z (ip), vehicle: carboxymethylcellulose (CMC) 95 % of control | dose: 0.5 mg/kg/injection, schedule: Q01DX Z (ip), vehicle: carboxymethylcellulose (CMC) 93 % of control | dose: 1.0 mg/kg/injection, schedule: Q01DX Z (ip), vehicle: carboxymethylcellulose (CMC) 95 % of control | dose: 2.0 mg/kg/injection, schedule: Q01DX Z (ip), vehicle: carboxymethylcellulose (CMC) 93 % of control | dose: 5.0 mg/kg/injection, schedule: Q01DX001 (ip), vehicle: saline 98 % of control | dose: 10.0 mg/kg/injection, schedule: Q01DX001 (ip), vehicle: saline 95 % of control

CCOP(=O)(OCC)/C(=C\c1ccccc1)C(=O)c1ccccc1
inactive: dose: 25.0 mg/kg/injection, schedule: Q04DX003 (ip), vehicle: Klucel (hydroxypropylcellulose) (HPC) 87 % of control | dose: 50.0 mg/kg/injection, schedule: Q04DX003 (ip), vehicle: Klucel (hydroxypropylcellulose) (HPC) 87 % of control | [1] 107 % of control | [7] 90 % of control | [3] 98 % of control | [5] 106 % of control

O=C(O)CN1C(=O)C2CC=CCC2C1=O (stereo not drawn)
inactive: [2] 91 % of control | [8] 96 % of control | [4] 96 % of control | [9] 93 % of control | [6] 86 % of control | [10] 91 % of control

Nc1nc(N)c2nc(COc3ccc(C(=O)NC(CCC(=O)O)C(=O)O)cc3)cnc2n1 (stereo not drawn)
inactive: dose: 0.5 mg/kg/injection, schedule: Q01DX009 (ip), vehicle: sodium bicarbonate 122 % of control | dose: 0.8 mg/kg/injection, schedule: Q01DX009 (ip), vehicle: sodium bicarbonate 122 % of control | dose: 2.5 mg/kg/injection, schedule: Q01DX009 (ip), vehicle: sodium bicarbonate 122 % of control | dose: 5.0 mg/kg/injection, schedule: Q01DX009 (ip), vehicle: sodium bicarbonate 100 % of control and 90 % of control

CCCCCCCCP(=O)(N1CC1CC)N1CC1CC (stereo not drawn)
inactive: dose: 50.0 mg/kg/injection, schedule: Q01DX001 (ip), vehicle: saline 101 % of control | dose: 100.0 mg/kg/injection, schedule: Q01DX001 (ip), vehicle: saline 103 % of control | dose: 200.0 mg/kg/injection, schedule: Q01DX001 (ip), vehicle: saline 101 % of control

CC(C)N1CN(C(C)C)CN(C(C)C)C1
inactive: dose: 25.0 mg/kg/injection, schedule: Q01DX009 (ip), vehicle: saline 103 % of control | dose: 25.0 mg/kg/injection, schedule: Q04DX003 (ip), vehicle: saline 99 % of control | dose: 50.0 mg/kg/injection, schedule: Q01DX009 (ip), vehicle: saline 93 % of control | dose: 50.0 mg/kg/injection, schedule: Q04DX003 (ip), vehicle: saline 99 % of control | [8] 87 % of control

Cc1cc2c(cc1C)=NC(=Nc1nc(O)c(O)[nH]1)N=2
inactive: [7] 98 % of control | dose: 200.0 mg/kg/injection, schedule: Q04DX003 (ip), vehicle: Klucel (hydroxypropylcellulose) (HPC) 96 % of control | dose: 400.0 mg/kg/injection, schedule: Q04DX003 (ip), vehicle: Klucel (hydroxypropylcellulose) (HPC) 91 % of control

CC(=O)Nc1ccc(Cc2ccc(NC(C)=O)cc2[N+](=O)[O-])c([N+](=O)[O-])c1
inactive: [11] 105 % of control | [12] 100 % of control | [13] 93 % of control

CC1CCC(Oc2nc3c(c(=O)n(C)c(=O)n3C)n2C)CC1 (stereo not drawn)
inactive: dose: 50.0 mg/kg/injection, schedule: Q01DX001 (ip), vehicle: other 104 % of control and 100 % of control | dose: 100.0 mg/kg/injection, schedule: Q01DX001 (ip), vehicle: other 101 % of control and 103 % of control | dose: 200.0 mg/kg/injection, schedule: Q01DX001 (ip), vehicle: other 101 % of control and 92 % of control | dose: 400.0 mg/kg/injection, schedule: Q01DX001 (ip), vehicle: other 95 % of control

CC(c1ccccc1)C1CCCCC1 (stereo not drawn)
inactive: dose: 100.0 mg/kg/injection, schedule: Q01DX001 (ip), vehicle: saline with Tween-80 96 % of control | dose: 200.0 mg/kg/injection, schedule: Q01DX001 (ip), vehicle: saline with Tween-80 96 % of control | dose: 400.0 mg/kg/injection, schedule: Q01DX001 (ip), vehicle: saline with Tween-80 91 % of control

Cc1ccc(N=C=C(c2ccc(Cl)cc2)c2ccc(Cl)cc2)cc1
inactive: dose: 1.56 mg/kg/injection, schedule: Q01DX009 (ip), vehicle: DMSO 104 % of control | dose: 3.12 mg/kg/injection, schedule: Q01DX009 (ip), vehicle: DMSO 93 % of control | dose: 6.25 mg/kg/injection, schedule: Q01DX009 (ip), vehicle: DMSO 97 % of control and 103 % of control | dose: 12.5 mg/kg/injection, schedule: Q04DX002 (ip), vehicle: DMSO 105 % of control | dose: 25.0 mg/kg/injection, schedule: Q04DX002 (ip), vehicle: DMSO 109 % of control

CC(C)=C(Br)c1c(C)cc(C)c(Nc2ccc([N+](=O)[O-])cc2)c1C
inactive: [8] 94 % of control | [9] 91 % of control | [10] 91 % of control

CC1CCCCN1P(N1CCCCC1C)N1CCCCC1C (stereo not drawn)
inactive: dose: 100.0 mg/kg/injection, schedule: Q04DX002 (ip), vehicle: saline with Tween-80 98 % of control | dose: 200.0 mg/kg/injection, schedule: Q04DX002 (ip), vehicle: saline with Tween-80 98 % of control

ClCC1CC2C=CC1C2 (stereo not drawn)
inactive: dose: 12.5 mg/kg/injection, schedule: Q01DX009 (ip), vehicle: Klucel (hydroxypropylcellulose) (HPC) 100 % of control | dose: 25.0 mg/kg/injection, schedule: Q01DX009 (ip), vehicle: Klucel (hydroxypropylcellulose) (HPC) 100 % of control | dose: 25.0 mg/kg/injection, schedule: Q04DX002 (ip), vehicle: saline with Tween-80 102 % of control | dose: 50.0 mg/kg/injection, schedule: Q01DX009 (ip), vehicle: Klucel (hydroxypropylcellulose) (HPC) 93 % of control and 98 % of control | dose: 50.0 mg/kg/injection, schedule: Q04DX002 (ip), vehicle: saline with Tween-80 88 % of control

NC(N)=NN=C(c1ccccc1)c1ccccc1
inactive: dose: 15.0 mg/kg/injection, schedule: Q01DX Z (ip), vehicle: other 101 % of control | dose: 30.0 mg/kg/injection, schedule: Q01DX Z (ip), vehicle: other 98 % of control | dose: 60.0 mg/kg/injection, schedule: Q01DX Z (ip), vehicle: other 106 % of control

O=[N+]([O-])c1cccc(C=Nc2cc([N+](=O)[O-])ccc2O)c1
inactive: dose: 100.0 mg/kg/injection, schedule: Q01DX009 (ip), vehicle: Klucel (hydroxypropylcellulose) (HPC) 88 % of control | dose: 200.0 mg/kg/injection, schedule: Q01DX009 (ip), vehicle: Klucel (hydroxypropylcellulose) (HPC) 93 % of control

OC1CC=CC=CC1
inactive: dose: 75.0 mg/kg/injection, schedule: Q01DX001 (ip), vehicle: saline 94 % of control | dose: 150.0 mg/kg/injection, schedule: Q01DX001 (ip), vehicle: saline 97 % of control

CCOC(=O)c1c(-c2cc(OC)c(OC)c(OC)c2)csc1NC(=O)c1ccccc1
inactive: dose: 50.0 mg/kg/injection, schedule: Q04DX003 (ip), vehicle: saline with Tween-80 89 % of control | dose: 100.0 mg/kg/injection, schedule: Q04DX003 (ip), vehicle: saline with Tween-80 105 % of control | dose: 200.0 mg/kg/injection, schedule: Q04DX003 (ip), vehicle: saline with Tween-80 90 % of control | dose: 400.0 mg/kg/injection, schedule: Q04DX003 (ip), vehicle: saline with Tween-80 90 % of control

ON=C(CSCc1ccccc1)CSCc1ccccc1
inactive: dose: 50.0 mg/kg/injection, schedule: Q01DX009 (ip), vehicle: saline with Tween-80 101 % of control | dose: 100.0 mg/kg/injection, schedule: Q01DX009 (ip), vehicle: saline with Tween-80 101 % of control | dose: 200.0 mg/kg/injection, schedule: Q01DX009 (ip), vehicle: saline with Tween-80 100 % of control | dose: 400.0 mg/kg/injection, schedule: Q01DX009 (ip), vehicle: saline with Tween-80 101 % of control

NC(=O)c1ccc(F)cc1
inactive: [11] 95 % of control | [12] 104 % of control | [13] 98 % of control

Cn1ncc2c1NC(c1ccc(F)cc1)SCC2=O (stereo not drawn)
inactive: dose: 400.0 mg/kg/injection, schedule: Q01DX009 (ip), vehicle: gum acacia 108 % of control
